This passage reports IC50 results from ChEMBL document CHEMBL6134926, “Targeting KRAS G12D Mutations: Advances in Small Molecule Inhibitors and PROTAC Technology” (ACS Med Chem Lett, 2025).

One experiment addresses SOS1-KRAS (Homo sapiens, UniProt P01116, G12D). Put plainly: Inhibition of GST-tagged KRAS G12D mutant (2 to 169 residues) (unknown origin)/SOS1 catalytic domain (564 to 1069 residues) (unknown origin) protein-protein interaction preincubated with compound for 90 mins followed by SOS1 and GTP-DY-647P1 addition and measured after 30 mins by fluorescence based nucleotide exchange assay. The format is protein-complex assay.

A short description of experiment [1]: Inhibition of GST-tagged KRAS G12V mutant (2 to 169 residues) (unknown origin)/SOS1 catalytic domain (564 to 1069 residues) (unknown origin) protein-protein interaction preincubated with compound for 90 mins followed by SOS1 and GTP-DY-647P1 addition and measured after 60 mins by fluorescence based nucleotide exchange assay. Details: species or system Homo sapiens.

A short description of experiment [2]: Inhibition of ERK phosphorylation in human GP2d cells harboring KRAS G12D mutant incubated for 3 hrs by ICW assay. In kind it is cell-based.

With `CN(C)C(=O)c1nn2c(c1Cl)CN(c1nc(OC[C@@]34CCCN3C[C@H](F)C4)nc(N3CCC(c4c(Cl)sc(N)c4C#N)C3)c1C#N)CCC2` (stereo partly specified), the IC50 (commonly the concentration that gives 50% inhibition) was below 10 nM at SOS1-KRAS, below 10 nM in experiment [1] and 10 nM in experiment [2].
Consider `CN(C)C(=O)c1nn2c(c1Cl)CN(c1nc(OC[C@@]34CCCN3C[C@H](F)C4)nc(N3CC(c4csc(N)c4C#N)C3)c1C#N)CCC2`, for which the IC50 on SOS1-KRAS was below 10 nM; in experiment [1], below 10 nM; in experiment [2] it was 100 nM.
`CC1(c2csc(N)c2C#N)CN(c2nc(OC[C@@]34CCCN3C[C@H](F)C4)nc(N3C[C@H]4CC[C@@H](C3)N4)c2C#N)C1`: the IC50 at SOS1-KRAS was below 10 nM; in experiment [2], 10 nM.
The matching figures for `CN(C)C(=O)c1nn2c(c1Cl)CN(c1cc(N3CC(C)(c4csc(N)c4C#N)C3)nc(OC[C@@]34CCCN3C[C@H](F)C4)n1)CCC2`: 10 nM and 1000 nM.
As to `CN(C)C(=O)c1nn2c(c1Cl)CN(c1nc(OC[C@@]34CCCN3C[C@H](F)C4)nc(N3CC(c4c(Cl)sc(N)c4C#N)C3)c1C#N)CCC2`, the IC50 on SOS1-KRAS was below 10 nM; in experiment [1] it was below 10 nM; in experiment [2], 1 nM.
As for `C[C@H](c1cccnc1N)N(C)c1nc(OC[C@@]23CCCN2C[C@H](F)C3)nc(N2CC(C)(c3csc(N)c3C#N)C2)c1C#N`, the half-maximal inhibitory concentration (IC50) is below 10 nM at SOS1-KRAS, below 10 nM in experiment [1] and 10 nM in experiment [2].
